# Results as given in patent publication US20190231705A1, “HIGH DRUG LOAD POLYMERIC NANOPARTICLE FORMULATIONS AND METHODS OF MAKING AND USING SAME” (Merck Sharp & Dohme Corp., priority 2018, published 2019).
# Experiment: Solution content after 80K centrifugation
# Format: physicochemical
# Details: grazoprevir/HPMCAS-L nanoparticle suspension after 80k centrifugation
smiles,measurement,value
"C=C[C@@H]1C[C@]1(NC(=O)[C@@H]1C[C@@H]2CN1C(=O)[C@H](C(C)(C)C)NC(=O)O[C@@H]1C[C@H]1CCCCCc1nc3ccc(OC)cc3nc1O2)C(=O)NS(=O)(=O)C1CC1 [grazoprevir, (1aR,5S,8S, 10R,22aR)-N-[(1R,2S)-1-[(cyclopropylsulfonamido)-carbonyl]-2-ethenylcyclopropyl]-14-methoxy-5-(2-methylpropan-2-yl)-3,6-dioxo-1,1a,3,4,5,6,9,10,18,-19,20,21,22,22a-tetradecahydro-8H-7,10-methanocyclopropa[18,19][1,10,3,6]dioxadiaza-cyclononadecino[11,12-b]quinoxaline-8-carboxamide]",% Grazoprevir in solution,4.2%
